Legend:
[1] = molecular target: T1, human recombinant CCR3 receptors (Homo sapiens, UniProt P51677); assay: Compound affinity at human recombinant CCR3 receptors by radioligand competition, CHO-K1 cell membranes; format: binding; details: mean of minimum 2 experiments; Cheng-Prussof correction of pIC50; 2 nM [3H] radioligand, 2 h at 37° C.; read-out: CCR3 pKi (converted)
T1 construct: expressed in transfected cells
T1 sequence (P51677 1-355): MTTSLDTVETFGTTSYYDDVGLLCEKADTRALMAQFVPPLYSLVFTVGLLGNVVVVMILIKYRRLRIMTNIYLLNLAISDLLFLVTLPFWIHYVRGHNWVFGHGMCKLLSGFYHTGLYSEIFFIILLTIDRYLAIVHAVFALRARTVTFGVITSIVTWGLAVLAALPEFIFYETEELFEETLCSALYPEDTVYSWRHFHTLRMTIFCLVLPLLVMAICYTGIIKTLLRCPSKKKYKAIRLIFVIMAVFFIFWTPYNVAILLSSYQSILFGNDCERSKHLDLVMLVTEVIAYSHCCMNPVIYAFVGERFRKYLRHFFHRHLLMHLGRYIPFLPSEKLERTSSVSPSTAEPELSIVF
Procedure: Determination of Compound Affinity at Human Recombinant CCR3 Receptors Assessed by Competition Of [^3H]-4-(2,4-dichloro-3-methylphenoxy)-1′-[4-(methylsulfonyl)benzoyl]-1,4′-bipiperidine for CHO-K1 Cell Membranes In Vitro
Membranes, prepared from CHO-K1 cells stably expressing recombinant human CCR3, suspended in assay buffer (50 mM Tris-Base, pH 7.4; containing sodium chloride (100 mM) and magnesium chloride (2 mM)) were incubated in the presence of 2 nM [^3H]-4-(2,4-dichloro-3-methylphenoxy)-1′-[4-(methylsulfonyl)benzoyl]-1,4′-bipiperidine, along with vehicle (1% (v/v) DMSO), 4-(4-chloro-3-methylphenoxy)-1′-[2-(methylsulfonyl)benzoyl]-1,4′-bipiperidine (to define non-specific binding) or test compound for 2 h at 37° C. in round bottomed 96-well plates. The plates were then filtered onto GF/B filter plates, pre-soaked for 1 hour in plate-coating solution (0.3% (w/v) polyethylenimine, 0.2% (w/v) BSA in de-ionised water), using a 96-well plate Tomtec cell harvester. Four washes (250 μL) with wash buffer (50 mM Tris-Base, pH 7.4 containing sodium chloride (500 mM) and magnesium chloride (2 mM)) were performed at 4° C. to remove unbound radioactivity. Plates were dried and MicroScint-O (50 μL) was added to each well. The plates were sealed (TopSeal A) and filter-bound radioactivity was measured with a scintillation counter (TopCount, Packard BioScience) using a 1 minute counting protocol.
Specific binding was determined from values of the control wells minus the values for the NSB wells for each assay plate. pIC50 values were calculated using a four parameter logistic fit (where pIC50 is defined as the negative logarithm of the concentration of compound required for 50% reduction in specific [^3H]-4-(2,4-dichloro-3-methylphenoxy)-1′-[4-(methylsulfonyl)benzoyl]-1,4′-bipiperidine binding). Data were presented as mean pKi values (calculated by applying a Cheng-Prussof correction to pIC50 values) from a minimum of 2 separate experiments.

[2] = Intrinsic clearance with human liver microsomes; format: in vitro ADME; details: human liver microsomes 1 mg protein/ml, NADPH, pH 7.4
Procedure: Determination of Intrinsic Clearance with Human Liver Microsomes
Frozen human liver microsomes (BD Gentest, Oxford) were defrosted and were then diluted with 0.1 M pH 7.4 phosphate buffer at 4° C. to 1 mg protein/ml. 0.45 mL aliquots of the microsome suspension were dispensed into flat-bottomed vials (1 per compound) and were allowed to come to room temperature (5 min). During the warming time, 5 μL of solution of each test compound (typically 100 μM in DMSO) was dispensed into separate vials resulting in a final DMSO concentration of 1%. 50 μL of a 10 mM solution of NADPH in phosphate buffer (0.1 M pH 7.4, 37° C.) was added to each vial to initiate metabolism.
50 μL Aliquots of the mixtures were removed at measured intervals and were immediately quenched by addition to 100 μL of methanol cooled in ice. The quenched samples were kept cold (at −20° C. or less) for at least 1 h and were then centrifuged to remove protein
The supernatant solution was analysed using quantitative LCMS for the presence of test compound. From the concentrations of test compound at different time points a T1/2 may be calculated which may be converted to an intrinsic clearance using the equation: CLint=ln 2/T1/2.

Which Ki [1] does the source give for `O=C(CCc1ccc(C(=O)O)cc1)NC1CCN(Cc2ccc(Cl)c(Cl)c2)CC1` [Example 2, 4-{2-[1-(3,4-Dichloro-benzyl)-piperidin-4-ylcarbamoyl]-ethyl}-benzoic acid] here?
Its Ki is 63.1 nM.

And the CLint scaled at 1 µM [2]?
Its CLint scaled at 1 µM is under 3 mL/min/kg.

With `O=C(CCc1cccc(C(=O)O)c1)NC1CCN(Cc2ccc(Cl)c(Cl)c2)CC1` [Example 4, 3-{2-[1-(3,4-Dichloro-benzyl)-piperidin-4-ylcarbamoyl]-ethyl}-benzoic acid] as the compound, how does the Ki [1] read?
The Ki was 79.4 nM.

What about the CLint scaled at 1 µM [2] of the same compound?
Its CLint scaled at 1 µM is under 3 mL/min/kg.

For `O=C(CCc1ccc2cc(C(=O)O)ccc2c1)NC1CCN(Cc2ccc(Cl)c(Cl)c2)CC1` [Example 6, 6-{2-[1-(3,4-Dichloro-benzyl)-piperidin-4-ylcarbamoyl]-ethyl}-naphthalene-2-carboxylic acid], which Ki [1] is on record?
The Ki was 15.8 nM.

And the CLint scaled at 1 µM [2]?
Its CLint scaled at 1 µM is under 3 mL/min/kg.

From US20090012125A1, “Piperidine Derivatives, Their Process for Preparation, Their Use as Therapeutic Agents and Pharmaceutical Compositions Containing Them” (priority 2006, published 2009)
